PubChem BioAssay AID2060886 (Molecular Pharmacology Branch, DTP, NCI, 2025)

Test system: 653999-131-R-J2-PDC complex spheroids, growth inhibition
Assay: Anticancer human tumor 653999-131-R-J2-PDC patient-derived lung adenocarcinoma cell line growth inhibition [RAS]
Settings: for IC50: curve of first compound; for viability, T/C: stronger effect = lower value
In short: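 Multi-cell-type spheroids: tumor cells plus HUVEC endothelial cells and mesenchymal stem cells. RAS-pathway inhibitors were combined with targeted agents, each dosed in half-log steps down from clinical Cmax, or from 10 microM when Cmax was unknown.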
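Further: spheroids exposed to the agents for seven days before the readout.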

Compound: O=C(c1ccc(F)c(F)c1Nc1ccc(I)cc1F)N1CC(O)([C@@H]2CCCCN2)C1 + C=CC(=O)N1CCN(c2nc(OCC3CCCN3C)nc3c(F)c(-c4nc(N)cc(C)c4C(F)(F)F)c(Cl)cc23)C(C)C1
- IC50 (second compound 0.00316 µM): 96.1 nM
- IC50 (second compound 0.01 µM): 49.2 nM
- IC50 (second compound 0.0316 µM): 111 nM
- IC50 (second compound 0.1 µM): 63.8 nM
- IC50 (second compound 0.316 µM): 87.3 nM
- IC50 (second compound 1 µM): 70.3 nM
- viability, T/C (second compound 0.00316 µM, first compound 0.00316 µM): 86.1%
- viability, T/C (second compound 0.00316 µM, first compound 0.01 µM): 83.1%
- viability, T/C (second compound 0.00316 µM, first compound 0.0316 µM): 63.8%
- viability, T/C (second compound 0.00316 µM, first compound 0.1 µM): 53.6%
- viability, T/C (second compound 0.00316 µM, first compound 0.316 µM): 25%
- viability, T/C (second compound 0.00316 µM, first compound 1 µM): 10.2%
- viability, T/C (second compound 0.01 µM, first compound 0.00316 µM): 94.1%
- viability, T/C (second compound 0.01 µM, first compound 0.01 µM): 83.3%
- viability, T/C (second compound 0.01 µM, first compound 0.0316 µM): 53.2%
- viability, T/C (second compound 0.01 µM, first compound 0.1 µM): 37.7%
- viability, T/C (second compound 0.01 µM, first compound 0.316 µM): 24.1%
- viability, T/C (second compound 0.01 µM, first compound 1 µM): 8.42%
- viability, T/C (second compound 0.0316 µM, first compound 0.00316 µM): 105%
- viability, T/C (second compound 0.0316 µM, first compound 0.01 µM): 86.6%
- viability, T/C (second compound 0.0316 µM, first compound 0.0316 µM): 74.8%
- viability, T/C (second compound 0.0316 µM, first compound 0.1 µM): 57.6%
- viability, T/C (second compound 0.0316 µM, first compound 0.316 µM): 22.4%
- viability, T/C (second compound 0.0316 µM, first compound 1 µM): 7.31%
- viability, T/C (second compound 0.1 µM, first compound 0.00316 µM): 96.9%
- viability, T/C (second compound 0.1 µM, first compound 0.01 µM): 80.5%
- viability, T/C (second compound 0.1 µM, first compound 0.0316 µM): 60.6%
- viability, T/C (second compound 0.1 µM, first compound 0.1 µM): 40.5%
- viability, T/C (second compound 0.1 µM, first compound 0.316 µM): 29%
- viability, T/C (second compound 0.1 µM, first compound 1 µM): 9.39%
- viability, T/C (second compound 0.316 µM, first compound 0.00316 µM): 84.4%
- viability, T/C (second compound 0.316 µM, first compound 0.01 µM): 69.9%
- viability, T/C (second compound 0.316 µM, first compound 0.0316 µM): 65.8%
- viability, T/C (second compound 0.316 µM, first compound 0.1 µM): 51.2%
- viability, T/C (second compound 0.316 µM, first compound 0.316 µM): 24.5%
- viability, T/C (second compound 0.316 µM, first compound 1 µM): 9.08%
- viability, T/C (second compound 1 µM, first compound 0.00316 µM): 100%
- viability, T/C (second compound 1 µM, first compound 0.01 µM): 79%
- viability, T/C (second compound 1 µM, first compound 0.0316 µM): 60.3%
- viability, T/C (second compound 1 µM, first compound 0.1 µM): 48.8%
- viability, T/C (second compound 1 µM, first compound 0.316 µM): 25.8%
- viability, T/C (second compound 1 µM, first compound 1 µM): 11%

Compound: Cc1nc(N2CCC3(CC2)COC(C)C3N)c(CO)nc1Sc1ccnc(N)c1Cl (stereo unspecified) + CCn1c(-c2cccnc2C(C)OC)c2c3cc(ccc31)N1CCOC(CC(NC(=O)C(C(C)C)N(C)C(=O)C3(F)CCN(C(=O)C#CC(C)(C)N(C)C)CC3)C(=O)N3CCCC(N3)C(=O)OCC(C)(C)C2)C1
- IC50 (second compound 0.000949 µM): > 10000 nM
- IC50 (second compound 0.003 µM): > 10000 nM
- IC50 (second compound 0.00949 µM): > 10000 nM
- IC50 (second compound 0.03 µM): > 10000 nM
- IC50 (second compound 0.0949 µM): > 10000 nM
- IC50 (second compound 0.3 µM): > 10000 nM
- viability, T/C (second compound 0.000949 µM, first compound 0.0316 µM): 85.9%
- viability, T/C (second compound 0.000949 µM, first compound 0.1 µM): 87.6%
- viability, T/C (second compound 0.000949 µM, first compound 0.316 µM): 81.8%
- viability, T/C (second compound 0.000949 µM, first compound 1 µM): 67.6%
- viability, T/C (second compound 0.000949 µM, first compound 3.16 µM): 81.7%
- viability, T/C (second compound 0.000949 µM, first compound 10 µM): 78.9%
- viability, T/C (second compound 0.003 µM, first compound 0.0316 µM): 103%
- viability, T/C (second compound 0.003 µM, first compound 0.1 µM): 98.2%
- viability, T/C (second compound 0.003 µM, first compound 0.316 µM): 83.5%
- viability, T/C (second compound 0.003 µM, first compound 1 µM): 70.4%
- viability, T/C (second compound 0.003 µM, first compound 3.16 µM): 78.6%
- viability, T/C (second compound 0.003 µM, first compound 10 µM): 80.3%
- viability, T/C (second compound 0.00949 µM, first compound 0.0316 µM): 96%
- viability, T/C (second compound 0.00949 µM, first compound 0.1 µM): 71%
- viability, T/C (second compound 0.00949 µM, first compound 0.316 µM): 84.8%
- viability, T/C (second compound 0.00949 µM, first compound 1 µM): 87%
- viability, T/C (second compound 0.00949 µM, first compound 3.16 µM): 75.2%
- viability, T/C (second compound 0.00949 µM, first compound 10 µM): 81.2%
- viability, T/C (second compound 0.03 µM, first compound 0.0316 µM): 89.6%
- viability, T/C (second compound 0.03 µM, first compound 0.1 µM): 76.8%
- viability, T/C (second compound 0.03 µM, first compound 0.316 µM): 83.6%
- viability, T/C (second compound 0.03 µM, first compound 1 µM): 75.8%
- viability, T/C (second compound 0.03 µM, first compound 3.16 µM): 83.2%
- viability, T/C (second compound 0.03 µM, first compound 10 µM): 76.8%
- viability, T/C (second compound 0.0949 µM, first compound 0.0316 µM): 92%
- viability, T/C (second compound 0.0949 µM, first compound 0.1 µM): 82.2%
- viability, T/C (second compound 0.0949 µM, first compound 0.316 µM): 93.6%
- viability, T/C (second compound 0.0949 µM, first compound 1 µM): 86.5%
- viability, T/C (second compound 0.0949 µM, first compound 3.16 µM): 94.4%
- viability, T/C (second compound 0.0949 µM, first compound 10 µM): 77.4%
- viability, T/C (second compound 0.3 µM, first compound 0.0316 µM): 84.1%
- viability, T/C (second compound 0.3 µM, first compound 0.1 µM): 88.3%
- viability, T/C (second compound 0.3 µM, first compound 0.316 µM): 72.4%
- viability, T/C (second compound 0.3 µM, first compound 1 µM): 89.7%
- viability, T/C (second compound 0.3 µM, first compound 3.16 µM): 80.3%
- viability, T/C (second compound 0.3 µM, first compound 10 µM): 81.7%

Compound: CC1(C)CCC(Nc2ncc(C(F)(F)F)c(-c3c[nH]c4c(P(C)(C)=O)c(C#N)ccc34)n2)CN1 (stereo unspecified) + C=CC(=O)N1CCN(c2nc(OCC3CCCN3C)nc3c(F)c(-c4nc(N)cc(C)c4C(F)(F)F)c(Cl)cc23)C(C)C1
- IC50 (second compound 0.00316 µM): > 300 nM
- IC50 (second compound 0.01 µM): > 300 nM
- IC50 (second compound 0.0316 µM): > 300 nM
- IC50 (second compound 0.1 µM): > 300 nM
- IC50 (second compound 0.316 µM): > 300 nM
- IC50 (second compound 1 µM): > 300 nM
- viability, T/C (second compound 0.00316 µM, first compound 0.000949 µM): 84%
- viability, T/C (second compound 0.00316 µM, first compound 0.003 µM): 70.5%
- viability, T/C (second compound 0.00316 µM, first compound 0.00949 µM): 73.5%
- viability, T/C (second compound 0.00316 µM, first compound 0.03 µM): 60.1%
- viability, T/C (second compound 0.00316 µM, first compound 0.0949 µM): 70%
- viability, T/C (second compound 0.00316 µM, first compound 0.3 µM): 71.4%
- viability, T/C (second compound 0.01 µM, first compound 0.000949 µM): 88.8%
- viability, T/C (second compound 0.01 µM, first compound 0.003 µM): 74%
- viability, T/C (second compound 0.01 µM, first compound 0.00949 µM): 70.1%
- viability, T/C (second compound 0.01 µM, first compound 0.03 µM): 60.9%
- viability, T/C (second compound 0.01 µM, first compound 0.0949 µM): 68%
- viability, T/C (second compound 0.01 µM, first compound 0.3 µM): 64.6%
- viability, T/C (second compound 0.0316 µM, first compound 0.000949 µM): 89.8%
- viability, T/C (second compound 0.0316 µM, first compound 0.003 µM): 66.1%
- viability, T/C (second compound 0.0316 µM, first compound 0.00949 µM): 59.9%
- viability, T/C (second compound 0.0316 µM, first compound 0.03 µM): 64.2%
- viability, T/C (second compound 0.0316 µM, first compound 0.0949 µM): 65.2%
- viability, T/C (second compound 0.0316 µM, first compound 0.3 µM): 64.5%
- viability, T/C (second compound 0.1 µM, first compound 0.000949 µM): 77.5%
- viability, T/C (second compound 0.1 µM, first compound 0.003 µM): 68.7%
- viability, T/C (second compound 0.1 µM, first compound 0.00949 µM): 61%
- viability, T/C (second compound 0.1 µM, first compound 0.03 µM): 58.5%
- viability, T/C (second compound 0.1 µM, first compound 0.0949 µM): 60.1%
- viability, T/C (second compound 0.1 µM, first compound 0.3 µM): 69.8%
- viability, T/C (second compound 0.316 µM, first compound 0.000949 µM): 101%
- viability, T/C (second compound 0.316 µM, first compound 0.003 µM): 72.3%
- viability, T/C (second compound 0.316 µM, first compound 0.00949 µM): 69.8%
- viability, T/C (second compound 0.316 µM, first compound 0.03 µM): 77.1%
- viability, T/C (second compound 0.316 µM, first compound 0.0949 µM): 77.5%
- viability, T/C (second compound 0.316 µM, first compound 0.3 µM): 69.5%
- viability, T/C (second compound 1 µM, first compound 0.000949 µM): 78.9%
- viability, T/C (second compound 1 µM, first compound 0.003 µM): 69.9%
- viability, T/C (second compound 1 µM, first compound 0.00949 µM): 74%
- viability, T/C (second compound 1 µM, first compound 0.03 µM): 64%
- viability, T/C (second compound 1 µM, first compound 0.0949 µM): 65.9%
- viability, T/C (second compound 1 µM, first compound 0.3 µM): 63.7%
